Measurements from article PMC6600671, “Design and Synthesis of Indoleamine 2,3-Dioxygenase 1 Inhibitors and Evaluation of Their Use as Anti-Tumor Agents” (Molecules, 2019).
Read-outs that look alike come from different tables or passages of the source.

What was measured:
rhIDO1 = rhIDO1 (Homo sapiens, UniProt P14902); assay: Enzyme-based IDO1 activity assay (kynurenine absorbance at 492 nm); format: biochemical; details: for inhibition at 50 µM: shown when calculated IC50 >50 μM, read-out: IDO inhibition rate (%) at 50 μM; for IC50: rhIDO1 0.05 μM, 37 °C, 45 min, read-out: IDO IC50
Sequence of rhIDO1 (P14902 whole entry): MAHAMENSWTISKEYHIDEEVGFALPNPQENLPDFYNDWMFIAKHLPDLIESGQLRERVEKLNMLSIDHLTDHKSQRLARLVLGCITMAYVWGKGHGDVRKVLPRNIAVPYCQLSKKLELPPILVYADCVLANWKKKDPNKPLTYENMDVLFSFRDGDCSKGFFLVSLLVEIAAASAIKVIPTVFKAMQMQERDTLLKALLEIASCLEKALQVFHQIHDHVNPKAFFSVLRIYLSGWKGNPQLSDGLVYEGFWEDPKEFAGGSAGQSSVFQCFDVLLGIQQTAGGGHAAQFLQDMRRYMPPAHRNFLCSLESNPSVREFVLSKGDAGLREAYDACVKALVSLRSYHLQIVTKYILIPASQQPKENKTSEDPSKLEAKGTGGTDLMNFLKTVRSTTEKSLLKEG
Experimental: (§1) The compounds on IDO1 or TDO activity were determined as follows: A standard reaction mixture (100 μL) containing 100 mM potassium phosphate buffer (pH 6.5), 40 mM ascorbic acid (neutralized with NaOH), 200 μg/mL catalase, 20 μM methylene blue and 0.05 μM rhIDO1 or rhTDO was added to the solution containing the substrate L-tryptophan and the test sample at a determined concentration. […] The yellow pigment derived from kynurenine was measured at 492 nm using a SYNERGY-H1 microplate reader (Biotek Instruments, Inc., Winooski, VT, USA). IC50 was analyzed using the GraphPad Prism 8.0 software (GraphPad Software, San Diego, CA, USA).

rhTDO = rhTDO (Homo sapiens, UniProt P48775); assay: Enzyme-based TDO activity assay (kynurenine absorbance at 492 nm); format: biochemical; details: for inhibition at 50 µM: shown when calculated IC50 >50 μM, read-out: TDO inhibition rate (%) at 50 μM; for inhibition at 50 µM / TDO IC50 or %: at 50 μM; for TDO IC50 or %: dash symbol
Sequence of rhTDO (P48775 whole entry): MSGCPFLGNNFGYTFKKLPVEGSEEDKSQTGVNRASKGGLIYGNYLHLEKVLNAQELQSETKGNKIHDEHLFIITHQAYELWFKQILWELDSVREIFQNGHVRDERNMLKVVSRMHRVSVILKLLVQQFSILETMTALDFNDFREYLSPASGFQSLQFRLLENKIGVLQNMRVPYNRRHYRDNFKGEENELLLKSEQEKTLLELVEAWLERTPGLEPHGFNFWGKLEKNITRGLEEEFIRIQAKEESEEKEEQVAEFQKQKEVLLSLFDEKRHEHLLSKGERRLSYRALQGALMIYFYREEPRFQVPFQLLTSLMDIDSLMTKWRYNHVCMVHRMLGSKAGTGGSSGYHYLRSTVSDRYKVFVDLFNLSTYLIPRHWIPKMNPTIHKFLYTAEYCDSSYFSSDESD
Experimental: as §1

MCF7 = assay: Cell viability MTT assay, 72 h; format: cell-based; details: Homo sapiens; for inhibition at 50 µM: shown when calculated IC50 >50 μM, read-out: MCF7 inhibition rate (%) at 50 μM
Experimental: (§2) B16-F10 mouse melanoma cells, NCI-H460 human lung cancer cell line and MCF7 were obtained from American Type Culture Collection (ATCC). All the cell lines were cultured with Dulbecco’ modified Eagle’s medium (DMEM) (Invitrogen Corporation, Waltham, MA, USA) supplemented with 10% fetal bovine serum (FBS) (Hyclone, Waltham, MA, USA) and 1% penicillin streptomycin (Invitrogen) at 37 °C in 5% CO2.
(§3) The in vitro inhibitory effects of the compounds were measured by MTT assay. Briefly, different kinds of cells were plated in 96-well plates at a density of 2000/well. After attachment for overnight at 37 °C, the cells were treated with the compounds at various concentrations. After 72 h culture, the MTT reagent was added to each well, and plates were incubated for another 4 h at 37 °C. Then, the blue-purple crystal formamidine was dissolved in DMSO after discarding the supernatant. Samples were measured using microplate reader at a wavelength of 570 nm (Biotek Instruments, Inc., Winooski, VT, USA). IC50 values were calculated with GraphPad Prism 8.0 software.

[1] = test system: NCI-H460 human lung cancer cell line; assay: Cell viability MTT assay, 72 h; format: cell-based; details: for inhibition at 50 µM: shown when calculated IC50 >50 μM, read-out: H460 inhibition rate (%) at 50 μM
Experimental: as §2, §3

| inhibition at 50 µM (rhIDO1; at 50 μM) | inhibition at 50 µM (rhTDO) | Compound | other results |
| --- | --- | --- | --- |
| 9.7% | 18% | Oc1ccc(Cl)cc1-c1cn(Cc2ccc(C(F)(F)F)cc2)cn1 [DX-04-02, 4-chloro-2-(1-(4-(trifluoromethyl)benzyl)-1H-imidazol-4-yl)phenol] | IC50 (MCF7; read-out: MCF7 IC50): 35.7 µM; IC50 ([1]; read-out: H460 IC50): 7.69 µM |
| 19.4% | 11.1% | ONCc1ccccc1-c1c[nH]cn1 [DX-03-03, N-(2-(1H-imidazol-4-yl)benzyl)hydroxylamine] | inhibition at 50 µM (MCF7): 22.2%; inhibition at 50 µM [1]: 5% |
| 2.4% | 10% | Cc1cccc2[nH]cc(C(=O)O)c12 [DX-01-02, 4-methyl-1H-indole-3-carboxylic Acid] | IC50 (MCF7; read-out: MCF7 IC50): 43.1 µM; inhibition at 50 µM [1]: 39.2% |
| 7.4% | 16.9% | O=C(O)c1c[nH]c2c(Br)cccc12 [DX-01-07, 7-bromo-1H-indole-3-carboxylic Acid] | inhibition at 50 µM (MCF7): 34.6%; inhibition at 50 µM [1]: 22.2% |
| 13.2% | 21.5% | FC(F)(F)c1ccc(COc2ccccc2-c2csnn2)cc1 [DX-03-10, 4-(2-((4-(trifluoromethyl)benzyl)oxy)phenyl)-1,2,3-thiadiazole] | inhibition at 50 µM (MCF7): 24.7%; inhibition at 50 µM [1]: 7.6% |
| 5.3% | 6.4% | O/N=C/c1ccc(-c2ccccc2)cc1-c1c[nH]cn1 [DX-03-09, (E) 3-(1H-imidazol-4-yl)-[1,1′-biphenyl]-4-carbaldehyde Oxime] | inhibition at 50 µM (MCF7): 37.7%; inhibition at 50 µM [1]: 40.5% |
| 13.5% | 23.6% | COc1ccc(Cl)cc1-c1cn(Cc2ccc(C(F)(F)F)cc2)nn1 [DX-04-06, 4-(5-chloro-2-methoxyphenyl)-1-(4-(trifluoromethyl)benzyl)-1H-1,2,3-triazole] | IC50 (MCF7; read-out: MCF7 IC50): 49.3 µM; IC50 ([1]; read-out: H460 IC50): 48.4 µM |
| 40.2% | 14.5% | O=C1CC(c2c(/C=N/O)[nH]c3ccc(F)cc23)C(=O)N1 (racemic) [DX-02-04, (R/S) (E)-3-(2,5-dioxopyrrolidin-3-yl)-5-fluoro-1H-indole-2-carbaldehyde oxime] |  |
|  | 38.9% | O=C(NCCCOc1ccccc1-c1cnc[nH]1)Nc1ccc(C(F)(F)F)cc1 [DX-03-13, 1-(3-(2-(1H-imidazol-5-yl)phenoxy)propyl)-3-(4-(trifluoromethyl)phenyl)urea] | IC50 (rhIDO1): 0.5 µM; TDO inhibition, in words (rhTDO): marginal; IC50 (MCF7; unit inferred, read-out: MCF7 IC50 or %): 21.4 µM; IC50 ([1]; unit inferred, read-out: H460 IC50 or %): 13.8 µM |
| 7.2% | 2.3% | O=C1CC(Cc2c[nH]c3ccccc23)C(=O)N1 (racemic) [DX-02-02, (R/S) 3-((1H-indol-3-yl)methyl)pyrrolidine-2,5-dione] |  |
| 6.3% |  | O=C1C/C(=C\c2c[nH]c3ccccc23)C(=O)N1 [DX-02-01, (E)-3-((1H-indol-3-yl)methylene)pyrrolidine-2,5-dione] | TDO IC50 or % (rhTDO; Table 2): - |
|  | 38.2% | NS(=O)(=O)NCCCOc1ccccc1-c1c[nH]cn1 [DX-03-11, N-(3-(2-(1H-imidazol-5-yl)phenoxy)propyl)-aminesulfonamide] | IC50 (rhIDO1): 2.4 µM; TDO inhibition, in words (rhTDO): marginal |
| 10.2% | 10.5% | O=C(O)c1c[nH]c2cc([N+](=O)[O-])ccc12 [DX-01-05, 6-nitro-1H-indole-3-carboxylic Acid] | inhibition at 50 µM (MCF7): 29.7%; inhibition at 50 µM [1]: 5.9% |
| 15.6% | 11.1% | O/N=C/c1cc(-c2ccccc2C(F)(F)F)ccc1-c1c[nH]cn1 [DX-03-08, (E) 4-(1H-imidazol-4-yl)-2′-(trifluoromethyl)-[1,1′-biphenyl]-3-carbaldehyde Oxime] |  |
| 38.2% | 21.4% | Oc1ccc(Cl)cc1-c1nn[nH]c1-c1ccc(C(F)(F)F)cc1 [DX-04-07, 4-chloro-2-(5-(4-(trifluoromethyl)phenyl)-1H-1,2,3-triazol-4-yl)phenol] | IC50 (MCF7; read-out: MCF7 IC50): 12.3 µM; IC50 ([1]; read-out: H460 IC50): 27.4 µM |
| 15.7% | 3.8% | N#CCc1nc2ccccc2o1 [DX-01-20] |  |
|  |  | CC(=O)O[C@H]1C(=O)[C@@]2(C)[C@H]([C@H](OC(=O)c3ccccc3)[C@]3(O)C[C@H](OC(=O)[C@H](O)[C@@H](NC(=O)c4ccccc4)c4ccccc4)C(C)=C1C3(C)C)[C@]1(OC(C)=O)CO[C@@H]1C[C@@H]2O [Taxol, reference compound] | IC50 (MCF7; read-out: MCF7 IC50): 0.015 µM; IC50 ([1]; read-out: H460 IC50): 0.006 µM |
| 31.3% | 12.1% | O/N=C/c1cc(Cl)ccc1-c1c[nH]cn1 [DX-03-05, (E) 5-chloro-2-(1H-imidazol-4-yl)benzaldehyde Oxime] |  |
| 10.9% | 3.2% | O=[N+]([O-])c1c[nH]c2ccccc12 [DX-01-08] |  |
| 47.1% | 33.9% | O=C(NO)c1c[nH]c2ccccc12 [DX-01-12] |  |
| 24.2% | 13.9% | O/N=C/c1ccccc1-c1c[nH]cn1 [DX-03-02, (E) 2-(1H-imidazol-4-yl)benzaldehyde Oxime] |  |
| 12.5% | 16.3% | O=C1CC(c2c(CNO)[nH]c3ccc(F)cc23)C(=O)N1 (racemic) [DX-02-05, (R/S) 3-(5-fluoro-2-((hydroxyamino)methyl)-1H-indol-3-yl)pyrrolidine-2,5-dione] |  |
|  | 42.2% | ONCc1cc2ccccc2[nH]1 [DX-01-17, N-((1H-indol-2-yl)methyl)hydroxylamine] | IDO1 inhibition, in words (rhIDO1): moderate; IC50 (rhIDO1): 17.7 µM |
| 25.6% | 12.9% | O/N=C/c1c(F)cccc1-c1c[nH]cn1 [DX-03-06, (E) 2-fluoro-6-(1H-imidazol-4-yl)benzaldehyde Oxime] |  |
| 33.5% | 15.1% | COc1ccc(-c2c[nH]cn2)c(/C=N/O)c1 [DX-03-07, (E) 2-(1H-imidazol-4-yl)-5-methoxybenzaldehyde Oxime] |  |
|  | 35.4% | Cc1ccccc1-c1ccc2[nH]cc(CNO)c2c1 [DX-01-15, N-((5-(o-tolyl)-1H-indol-3-yl)methyl)hydroxylamine] | IDO1 inhibition, in words (rhIDO1): moderate; IC50 (rhIDO1): 21.3 µM |
|  | 3.8% | COc1ccc2[nH]cc(CCNC(C)=O)c2c1 [DX-01-11] | IDO IC50 or % (rhIDO1; at 50 μM, dash symbol): - |
| 9.7% | 8.9% | O=C(O)c1cc2ccccc2[nH]1 [DX-01-01] |  |
| 13.2% | 4.5% | N#CCc1nc2ccccc2[nH]1 [DX-01-22] |  |

| Compound | inhibition at 50 µM (rhIDO1; at 50 μM) | inhibition at 50 µM (rhTDO) | other results |
| --- | --- | --- | --- |
| ONCc1c[nH]c2ccccc12 [DX-01-14, N-((1H-indol-3-yl)methyl)hydroxylamine] |  | 38.2% | IDO1 inhibition, in words (rhIDO1): moderate; IC50 (rhIDO1): 11.1 µM |
| O/N=C/c1c[nH]c2ccccc12 [DX-01-13, (E) 1H-indole-3-carbaldehyde Oxime] | 19.7% | 8.1% | inhibition at 50 µM (MCF7): 10.1%; inhibition at 50 µM [1]: 23.1% |
| O=c1[nH]c2ccccc2o1 [DX-01-18] | 5.4% |  | TDO IC50 or % (rhTDO; Table 1): - |
| N#CCc1c[nH]c2ccccc12 [DX-01-10] | 2.1% | 8.9% |  |
| N#Cc1c[nH]c2ccccc12 [DX-01-09] | 2.6% | 7.8% |  |
